Literature values as cited in patent US5629431A, “Inhibitors of retroviral proteases” (Hoechst Aktiengesellschaft, priority 1989, dated 1997).
Square brackets hold non-standard residues; d marks the D form. Peptide text beside a SMILES is read from it. * marks the point of attachment. Sta = CC(C)C[C@H](N)[C@@H](O)CC(=O)O; Isovaleryl = CC(C)CC(=O)*

Tests used:
[1] = test system: HIV protease; conditions: literature value (Katoh et al., Nature 329, 1987); read-out: IC50 against HIV protease
[2] = test system: formation of the nuclear protein p24 and activity of reverse transcriptase; conditions: high doses; in the biosynthesis (v. d. Helm et al., FEBS Lett. 247, 1989)

CC(C)CC(=O)N[C@H](C(=O)N[C@H](C(=O)N[C@@H](CC(C)C)[C@@H](O)CC(=O)N[C@@H](C)C(=O)N[C@@H](CC(C)C)[C@@H](O)CC(=O)O)C(C)C)C(C)C [pepstatin A] (Isovaleryl-VV[Sta]A[Sta]-OH)
activity of reverse transcriptase [2]: reduction
formation of the nuclear protein p24 [2]: reduction
